Experimental data from the NIST ThermoML archive (doi:10.1016/j.jct.2013.10.031).
± gives the expanded uncertainty stated by the source.

Conditions: for vapor or sublimation pressure: Liquid, Closed cell (Static) method; for mass density: Gas, Burnett expansion method

FCC(F)(F)F [1,1,1,2-tetrafluoroethane]
Conditions	vapor or sublimation pressure [kPa]
252.12 K	127.2 ± 20
256.18 K	151.4 ± 20
260.19 K	178.5 ± 20
264.2 K	209.6 ± 20
268.21 K	244.3 ± 20
272.14 K	283 ± 20
276.09 K	326.1 ± 20
280.13 K	374.9 ± 20
284.1 K	428.7 ± 20
288.09 K	487 ± 20
292.13 K	554.1 ± 20
296.32 K	630.3 ± 20
300.17 K	707.1 ± 20
304.12 K	792.4 ± 20
308.12 K	887 ± 20
312.19 K	991.8 ± 20
316.2 K	1103.5 ± 20
320.09 K	1220.6 ± 20

CCC [propane]
Conditions	vapor or sublimation pressure [kPa]
252.1 K	236 ± 20
256.21 K	273.3 ± 20
260.1 K	311.1 ± 20
264.21 K	358.7 ± 20
268.09 K	406 ± 20
272.13 K	460.2 ± 20
276.14 K	519.7 ± 20
280.21 K	585.8 ± 20
284.09 K	653.2 ± 20
288.1 K	731.4 ± 20
292.1 K	814.2 ± 20
296.21 K	906.2 ± 20
300.18 K	1001.8 ± 20
304.19 K	1107.5 ± 20
308.18 K	1219.8 ± 20
312.17 K	1339.6 ± 20
316.2 K	1468.9 ± 20
320.19 K	1606.7 ± 20

N#N [nitrogen]
mass density [kg/m3]
Conditions	634.95 kPa	845.67 kPa	1127.1 kPa	1502.9 kPa	2004.5 kPa
322.97 K	–	8.818 ± 0.22	11.749 ± 0.23	–	20.889 ± 0.27
322.98 K	6.619 ± 0.21	–	–	15.668 ± 0.24	–
